Measured values from ChEMBL document CHEMBL1201862, “PubChem BioAssay data set” (2004).
The source made the active and inactive calls.

Experiments:
[1] = biological target: T1, Polyadenylate-binding protein 1 (Homo sapiens, UniProt P11940); experiment: MLLE binding blockers, Cy5 peptide tracer – biochemical, fluorescence polarization, Cy5-PAM2 peptide, secondary, miRNA deadenylation inhibitor project, dose response (AID 602260); type: functional; settings: read-out: IC50_Mean
[2] = biological target: T1, Polyadenylate-binding protein 1; experiment: MLLE domain peptide-binding blockers, IC50 – biochemical, fluorescence polarization, FITC-PAM2 peptide, dose response (AID 602259); type: functional; settings: read-out: IC50_Mean
Protein skinhead-1 = biological target: T2, Protein skinhead-1 (Caenorhabditis elegans, UniProt P34707); type: functional
T2 sequence (P34707 whole entry): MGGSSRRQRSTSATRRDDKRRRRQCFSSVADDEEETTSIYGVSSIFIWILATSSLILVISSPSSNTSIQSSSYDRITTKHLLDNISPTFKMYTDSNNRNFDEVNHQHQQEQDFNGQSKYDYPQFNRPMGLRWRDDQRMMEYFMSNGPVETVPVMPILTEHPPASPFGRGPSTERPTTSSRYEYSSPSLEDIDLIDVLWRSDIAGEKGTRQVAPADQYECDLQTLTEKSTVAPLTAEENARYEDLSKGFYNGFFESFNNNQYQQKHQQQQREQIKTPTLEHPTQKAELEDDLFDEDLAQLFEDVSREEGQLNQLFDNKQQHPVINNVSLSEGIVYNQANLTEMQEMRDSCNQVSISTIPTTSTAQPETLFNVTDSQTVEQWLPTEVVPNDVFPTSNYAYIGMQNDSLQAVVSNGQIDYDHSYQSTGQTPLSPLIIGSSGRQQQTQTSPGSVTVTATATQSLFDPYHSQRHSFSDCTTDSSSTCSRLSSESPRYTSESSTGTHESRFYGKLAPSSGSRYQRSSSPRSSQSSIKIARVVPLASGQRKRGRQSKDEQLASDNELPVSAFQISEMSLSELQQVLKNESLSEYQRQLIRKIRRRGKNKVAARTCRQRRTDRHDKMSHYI

[3] = growth inhibition of yeast DHODH-expressing 3D7 parasites – SYBR Green, dry powder samples, dose response (AID 1159570); type: functional, cell-based;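 note: parasite growth measured after 72 hours of compound exposure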
[4] = P. falciparum Dd2 growth inhibitors, dose response, SYBR Green, cherry-picked samples (AID 1159567); type: functional, cell-based
[5] = Dd2 malaria parasite growth inhibition potency – SYBR Green, dry powder samples, dose response (AID 1159566); type: functional, cell-based;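 note: potency for growth inhibition with lower SYBR green DNA signal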
[6] = growth inhibition of PfATP4-mutant resistant parasites – NITD609-resistant line, SYBR Green, dry powder, dose response (AID 1159571); type: functional, cell-based;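 note: parasites synchronized at ring stage by sorbitol before testing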
[7] = biological target: T3, Carboxy-terminal domain RNA polymerase II polypeptide A small phosphatase 1 (Homo sapiens, UniProt Q9GZU7); experiment: CTDSP1 inhibitors, concentration-response, biochemical, absorbance readout, ultra-high-throughput screen actives (AID 540297); type: functional
T3 sequence (Q9GZU7 whole entry): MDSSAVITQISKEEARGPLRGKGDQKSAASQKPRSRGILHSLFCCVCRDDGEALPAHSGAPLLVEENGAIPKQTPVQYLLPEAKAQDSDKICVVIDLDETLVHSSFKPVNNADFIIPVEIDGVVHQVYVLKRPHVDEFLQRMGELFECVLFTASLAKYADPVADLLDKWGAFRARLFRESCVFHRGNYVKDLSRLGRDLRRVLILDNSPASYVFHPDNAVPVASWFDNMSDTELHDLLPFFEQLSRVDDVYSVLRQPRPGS

[8] = luciferase reporter signal suppression in cells – H4 neuroglioma cells, luminescence, dose response (AID 1990); type: functional, cell-based
[9] = Luminescence Cell-Based Dose Response HTS to Identify Inhibitors of 5'UTR Stem-Loop Driven Prion Protein mRNA Translation in H4 Neuroglioblastoma Cells. [Related pubchem assays: 1827 (Project Summary), 1813 (Primary HTS)]; type: functional
[10] = alpha-synuclein stem-loop luciferase translation blockers – H4 neuroglioma cells, luminescence, confirmation (AID 1988); type: functional, cell-based
[11] = NIH-3T3 fibroblast cytotoxicity, dose response, cytotoxicity control, cell-based, fluorescence, Alamar Blue, secondary assay (AID 2327); type: functional;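 note: NIH-3T3 mouse fibroblasts cultured with fluconazole at 8 µg/mL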
[12] = fluconazole-exposed Candida albicans growth modulators – fluorescence, retest, confirmation (AID 2467); type: functional, cell-based
[13] = Luminescence Cell-Based Dose Response HTS to Identify Activators of Luciferase Translation or Activity in H4 […] Cells. [Related pubchem assays: 1829 (Project Summary), 1814 (Primary HTS)]; type: functional
H4 = experiment: Luminescence Cell-Based Dose Response HTS to Identify Activators of 5'UTR Stem-Loop Driven Prion Protein mRNA Translation in H4 Neuroglioblastoma Cells. [Related pubchem assays: 1829 (Project Summary), 1814 (Primary HTS)]; type: functional; settings: Homo sapiens
P388/ADR = experiment: cells; type: functional; settings: Mus musculus
SN12K1 = experiment: cells; type: functional; settings: Homo sapiens
P388 = experiment: cells; type: functional; settings: Mus musculus
[14] = HIV-1 AD8 envelope cell-cell fusion blockers – cherry-pick, dose response (AID 652062); type: functional, cell-based;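 note: luciferase signal from cell-cell fusion driven by HIV-1 clade B AD8 Env; potency is for inhibitors of fusion seen as a drop in luminescence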
[15] = biological target: T4, Heat shock factor protein 1 (Mus musculus, UniProt P38532); experiment: enhancement of HSF1-driven luciferase signal – cell-based, NIH3T3, luminescence, dose retest, confirmation (AID 435004); type: functional;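 note: stress induced by proteasome inhibitor MG132 added 30 min after compound; luciferase reporter driven by HSF1 response element in NIH3T3 cells; actives raise luminescence as potentiators of the MG132 stress response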
T4 sequence (P38532 whole entry): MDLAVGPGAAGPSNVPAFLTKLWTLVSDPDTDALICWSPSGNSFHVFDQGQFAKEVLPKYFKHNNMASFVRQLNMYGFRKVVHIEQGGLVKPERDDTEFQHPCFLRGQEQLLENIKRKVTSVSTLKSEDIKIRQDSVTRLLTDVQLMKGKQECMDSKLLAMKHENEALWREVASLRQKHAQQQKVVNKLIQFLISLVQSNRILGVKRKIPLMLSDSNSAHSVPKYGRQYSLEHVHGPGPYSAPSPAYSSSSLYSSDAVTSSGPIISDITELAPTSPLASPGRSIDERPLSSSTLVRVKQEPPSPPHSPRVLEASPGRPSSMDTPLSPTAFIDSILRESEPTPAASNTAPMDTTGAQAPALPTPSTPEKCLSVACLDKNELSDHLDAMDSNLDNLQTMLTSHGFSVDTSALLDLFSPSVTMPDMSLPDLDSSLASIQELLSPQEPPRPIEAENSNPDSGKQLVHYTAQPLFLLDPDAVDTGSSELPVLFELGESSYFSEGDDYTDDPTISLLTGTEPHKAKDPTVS

T1 sequence (P11940 whole entry, the tested form may be a part): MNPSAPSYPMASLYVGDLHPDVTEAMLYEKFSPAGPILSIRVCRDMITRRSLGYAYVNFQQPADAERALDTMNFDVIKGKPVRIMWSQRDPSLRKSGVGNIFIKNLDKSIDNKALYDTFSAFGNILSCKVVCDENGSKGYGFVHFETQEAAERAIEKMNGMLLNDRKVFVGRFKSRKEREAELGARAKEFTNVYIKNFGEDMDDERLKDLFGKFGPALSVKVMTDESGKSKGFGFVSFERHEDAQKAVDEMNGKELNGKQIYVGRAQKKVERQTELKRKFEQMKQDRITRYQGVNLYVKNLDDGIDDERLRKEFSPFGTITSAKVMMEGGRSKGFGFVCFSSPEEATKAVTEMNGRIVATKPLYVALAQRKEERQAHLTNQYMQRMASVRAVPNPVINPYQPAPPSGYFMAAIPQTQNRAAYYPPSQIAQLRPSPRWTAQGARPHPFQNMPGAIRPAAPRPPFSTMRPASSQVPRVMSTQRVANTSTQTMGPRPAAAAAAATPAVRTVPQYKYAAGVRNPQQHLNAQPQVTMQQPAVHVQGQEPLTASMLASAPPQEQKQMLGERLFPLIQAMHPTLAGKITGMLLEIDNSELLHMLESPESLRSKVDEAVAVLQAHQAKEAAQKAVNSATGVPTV

COc1ccccc1C(=O)NCCn1ccc2ccccc21
IC50 [1]: > 66 µM (inactive) | IC50 [2]: > 66 µM (inactive)

Cc1cnc(C(=O)Nc2ccccc2-c2ccc(C)o2)cn1
IC50 (Protein skinhead-1): > 100 µM (inactive)

CN1c2ccc(C#Cc3cccnc3)cc2[C@H]2[C@H](CCN2S(=O)(=O)c2ccc(F)cc2)[C@H]1CO
AC50 [3]: 1.33 µM (active) | AC50 [4]: 1.7 µM (active) | AC50 [5]: 1.05 µM (active) | AC50 [6]: 1.16 µM (active)

Cc1cc2ccccn2c1C(=O)Nc1cccc(Cl)c1
IC50 (Protein skinhead-1): > 100 µM (inactive)

N#Cc1ccc(OCC(=O)Nc2cccc(S(=O)(=O)NC3=NCCCCC3)c2)cc1
IC50 [7]: 11.6 µM (active)

Cc1cc(C)n(CC(C)NC(=O)c2cc(COc3c(F)cccc3F)on2)n1 (centres undefined)
EC50 [8]: > 120 µM (not active) | EC50 [9]: > 120 µM (not active) | EC50 [10]: > 120 µM (not active)

CC(=O)Nc1ccc(N2CC(C)(C)C2=O)cc1
EC50 [11]: 38.4 µM (active) | EC50 [12]: > 38 µM (not active)

Cc1c(Cl)cccc1N=C(S)NCCc1ccc(S(N)(=O)=O)cc1
IC50 [1]: > 66 µM (inactive) | IC50 [2]: > 66 µM (inactive)

O=C(NN=C(NS(=O)(=O)c1ccc(Cl)cc1)c1ccccc1)c1cccc(Cl)c1
EC50 [13]: 7.54 µM (active) | EC50 (H4): > 120 µM (not active)

CCN(c1c(C)n(C)n(-c2ccccc2)c1=O)S(C)(=O)=O
IC50 [1]: > 66 µM (inactive) | IC50 [2]: > 66 µM (inactive)

Fc1ccc(-n2nnc(-c3nccs3)n2)cc1
IC50 (Protein skinhead-1): 22.8 µM (active)

CCCCn1c(=O)[nH]c(=O)c2c1nc(-c1ccc(-c3ccccc3Br)o1)n2CC
EC50 [11]: > 150 µM (inconclusive) | EC50 [12]: > 38 µM (not active)

N#Cc1c(O)nc(-c2ccco2)c2c1CCCC2
IC50 [1]: > 66 µM (inactive) | IC50 [2]: > 66 µM (inactive)

CC1CCN(c2ccc(S(=O)(=O)Nc3cc(C(=O)O)cc(C(=O)O)c3)cc2[N+](=O)[O-])CC1
IC50 [7]: 9.99 µM (active)

COc1ccc2oc(=O)c(C(=O)OCc3ccccc3)cc2c1
IC50 [1]: > 66 µM (inactive) | IC50 [2]: > 66 µM (inactive)

Nc1nc(Nc2ccccc2)nc(NCc2ccccc2)c1[N+](=O)[O-]
EC50 [8]: 17 µM (active) | EC50 [9]: > 120 µM (not active) | EC50 [10]: 44.7 µM (active)

O=C(C[N+]12CCC(CC1)C(C(O)(c1ccccc1)c1ccccc1)C2)c1ccc(Br)cc1 (centres undefined)
EC50 [11]: > 160 µM (inconclusive) | EC50 [12]: 1.45 µM (active)

CC[N+]1(CC(O)COC2CC(C)CC(C)(C)C2)CCOCC1 (centres undefined)
IC50 [7]: 11.3 µM (active)

O=C(NC(=S)Nc1ncccn1)c1ccccc1Cl
IC50 [1]: > 66 µM (inactive) | IC50 [2]: > 66 µM (inactive)

COc1cccc2sc(NNC(=O)c3nc4ccccc4s3)nc12
EC50 [8]: > 120 µM (not active) | EC50 [9]: 16.5 µM (active) | EC50 [10]: > 120 µM (not active)

COc1ccc(NC(=O)N2CC3(C2)CN(C(=O)C2CCC2)[C@H](CO)c2c3c3ccc(OC)cc3n2C)cc1
AC50 [3]: 0.22 µM (active) | AC50 [4]: 2.21 µM (active) | AC50 [5]: 0.437 µM (active) | AC50 [6]: 0.372 µM (active)

CC(C)(C)[S@@+]([O-])N1Cc2cc(C(=O)N[C@@H]3CCN(Cc4ccccc4)C3)nc(-c3cccc(-c4cccnc4)c3)c2[C@H]1CCO
AC50 [3]: 3.42 µM (active) | AC50 [4]: 1.94 µM (active) | AC50 [5]: 2.01 µM (active) | AC50 [6]: 2.58 µM (active)

CC(=O)C1=C(O)C(=O)N(C)C1c1ccccc1[N+](=O)[O-] (centres undefined)
IC50 [1]: > 66 µM (inactive) | IC50 [2]: > 66 µM (inactive)

Cc1c(Cl)ccc(S(=O)(=O)Nc2cccnc2)c1Cl
EC50 [11]: > 150 µM (inactive) | EC50 [12]: > 38 µM (not active)

Cc1cc(C(=O)COC(=O)c2cc(Cl)c(O)c(Cl)c2)c(C)n1C
IC50 [7]: 11.5 µM (active)

CCc1ccc(-c2csc3ncn(Cc4ccc(C(=O)O)cc4)c(=O)c23)cc1
EC50 [11]: > 150 µM (inconclusive) | EC50 [12]: > 38 µM (not active)

C1CN1c1nc(N2CC2)nc(N2CC2)n1
GI50 (P388/ADR): 0.466 µM (active) | GI50 (SN12K1): 5.21 µM (inactive) | GI50 (P388): 0.465 µM (active)

CCOC(=O)/C=C1\CN(CCC(C)C)S(=O)(=O)c2ccccc21
IC50 [7]: 45.3 µM (active)

Cc1cc(OCC(O)CN2CCN(C)CC2)ccc1C(C)C (centres undefined)
IC50 (Protein skinhead-1): > 100 µM (inactive)

O=C(C[C@@H]1C=C[C@@H](NC(=O)Nc2ccc3c(c2)OCO3)[C@H](CO)O1)NCc1ccc(F)cc1
AC50 [14]: 4.77 µM (active)

CCCCCCNC(=O)CCNS(=O)(=O)c1ccc(C)cc1
EC50 [8]: > 120 µM (not active) | EC50 [9]: > 120 µM (not active) | EC50 [10]: > 120 µM (not active)

O=NN(CCCl)C(=O)NCCCl [CARMUSTINE]
GI50 (P388/ADR): 7.29 µM (inactive) | GI50 (SN12K1): 58.3 µM (inactive) | GI50 (P388): 6.62 µM (inactive)

CCCNC(=O)C[C@@H]1C[C@H]2c3cc(NC(=O)Cc4ccncc4)ccc3O[C@H]2[C@H](CO)O1
AC50 [14]: 39.4 µM (active)

Brc1ccc(OCc2n[nH]c(-c3ccccn3)n2)cc1
IC50 (Protein skinhead-1): > 100 µM (inactive)

CCCCOc1ccc(C(=O)OC2CC(C)N(C)CC2C)cc1 (centres undefined)
IC50 (Protein skinhead-1): 27.6 µM (active)

O=C(N/N=C/c1ccncc1)c1cc2ccccc2cc1O
EC50 [11]: > 150 µM (inactive) | EC50 [12]: > 38 µM (not active) | EC50 [15]: 106 µM (active)

O=C(CN(Cc1ccco1)C(=O)CNS(=O)(=O)c1ccc(Cl)cc1)NC1CCCCC1
IC50 (Protein skinhead-1): > 100 µM (inactive)

CCN(CC)CCN(C(=O)c1cc2c(ccc3ccccc32)oc1=O)c1nc2cc3c(cc2s1)OCCO3
EC50 [8]: > 120 µM (not active) | EC50 [9]: > 120 µM (inconclusive) | EC50 [10]: 9.65 µM (active)

Brc1ccc2nc(N3CCCC3)sc2c1
IC50 (Protein skinhead-1): 79.4 µM (inactive)

CCN1C(=O)[C@H]2[C@H]3CN=C(SCC(=O)c4ccccc4)N3[C@@](C)(C(=O)OC)[C@H]2C1=O
IC50 [1]: > 66 µM (inactive) | IC50 [2]: > 66 µM (inactive)

CSCSCC(N)CO.Cc1[nH]c(=O)[nH]c(=O)c1/C=C/C(=O)O
GI50 (P388/ADR): > 625 µM (inactive) | GI50 (SN12K1): > 625 µM (inactive) | GI50 (P388): > 625 µM (inactive)

O=C(O)C1CCC(=O)N1S(=O)(=O)c1ccccc1 (centres undefined)
GI50 (P388/ADR): > 100 µM (inactive) | GI50 (SN12K1): > 100 µM (inactive) | GI50 (P388): > 100 µM (inactive)

CCC(OC(=O)CC1Sc2ccccc2NC1=O)C(=O)NCC1CCCO1 (centres undefined)
IC50 [1]: > 66 µM (inactive) | IC50 [2]: > 66 µM (inactive)

Nc1ccc(Sc2ccc([N+](=O)[O-])cc2)cc1
EC50 [11]: > 160 µM (inactive) | EC50 [12]: > 38 µM (not active)
